Laboratory results: PubChem BioAssay AID1963865 (Molecular Pharmacology Branch, DTP, NCI, 2024)

System: KRAS PDC multicell spheroid viability
Assay: Anticancer human tumor 825966-067-R-J1-PDC patient-derived colon carcinoma cell line growth inhibition [KRAS2]
Details: for IC50: curve of first compound; for viability, T/C: stronger effect = lower value; active = viability on the fitted dose curve at most 10% of control; inactive = the rest
In short: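 Combination screen of spheroid viability in tumor-cell co-cultures with endothelial (HUVEC) and mesenchymal stem cell stroma. Each agent was tested in half-log dilutions, topping at clinical Cmax or at 10 microM without a known Cmax.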

[1] = second compound 0.1 µM, first compound 0.0316 µM
[2] = second compound 0.1 µM, first compound 0.1 µM
[3] = second compound 0.1 µM, first compound 0.316 µM
[4] = second compound 0.1 µM, first compound 1 µM
[5] = second compound 0.1 µM, first compound 3.16 µM
[6] = second compound 0.1 µM, first compound 10 µM
[7] = second compound 0.316 µM, first compound 0.0316 µM
[8] = second compound 0.316 µM, first compound 0.1 µM
[9] = second compound 0.316 µM, first compound 0.316 µM
[10] = second compound 0.316 µM, first compound 1 µM
[11] = second compound 0.316 µM, first compound 3.16 µM
[12] = second compound 0.316 µM, first compound 10 µM
[13] = second compound 1 µM, first compound 0.0316 µM
[14] = second compound 1 µM, first compound 0.1 µM
[15] = second compound 1 µM, first compound 0.316 µM
[16] = second compound 1 µM, first compound 1 µM
[17] = second compound 1 µM, first compound 3.16 µM
[18] = second compound 1 µM, first compound 10 µM
[19] = second compound 3.16 µM, first compound 0.0316 µM
[20] = second compound 3.16 µM, first compound 0.1 µM
[21] = second compound 3.16 µM, first compound 0.316 µM
[22] = second compound 3.16 µM, first compound 1 µM
[23] = second compound 3.16 µM, first compound 3.16 µM
[24] = second compound 3.16 µM, first compound 10 µM
[25] = second compound 10 µM, first compound 0.0316 µM
[26] = second compound 10 µM, first compound 0.1 µM
[27] = second compound 10 µM, first compound 0.316 µM
[28] = second compound 10 µM, first compound 1 µM
[29] = second compound 10 µM, first compound 3.16 µM
[30] = second compound 10 µM, first compound 10 µM
[31] = second compound 0.1 µM, first compound 0.000316 µM
[32] = second compound 0.1 µM, first compound 0.001 µM
[33] = second compound 0.1 µM, first compound 0.00316 µM
[34] = second compound 0.1 µM, first compound 0.01 µM
[35] = second compound 0.316 µM, first compound 0.000316 µM
[36] = second compound 0.316 µM, first compound 0.001 µM
[37] = second compound 0.316 µM, first compound 0.00316 µM
[38] = second compound 0.316 µM, first compound 0.01 µM
[39] = second compound 1 µM, first compound 0.000316 µM
[40] = second compound 1 µM, first compound 0.001 µM
[41] = second compound 1 µM, first compound 0.00316 µM
[42] = second compound 1 µM, first compound 0.01 µM
[43] = second compound 3.16 µM, first compound 0.000316 µM
[44] = second compound 3.16 µM, first compound 0.001 µM
[45] = second compound 3.16 µM, first compound 0.00316 µM
[46] = second compound 3.16 µM, first compound 0.01 µM
[47] = second compound 10 µM, first compound 0.000316 µM
[48] = second compound 10 µM, first compound 0.001 µM
[49] = second compound 10 µM, first compound 0.00316 µM
[50] = second compound 10 µM, first compound 0.01 µM
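Note: spheroids exposed to compounds for 7 days.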
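Throughout, for viability, T/C: 100% = DMSO vehicle control viability.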

CC(C)NCC(C(=O)N1CCN(c2ncnc3c2C(C)CC3O)CC1)c1ccc(Cl)cc1 (stereo not given) + CNCc1ccccc1-c1csc(C(C)Nc2nc(C)nc3cc(OC)c(OC)cc23)c1
1780 nM: IC50 (second compound 0.316 µM)
1880 nM: IC50 (second compound 0.1 µM)
< 31.6 nM: IC50 (second compound 10 µM)
active: viability, T/C [6] 7.87% | viability, T/C [12] 6.85% | viability, T/C [17] 14.8% | viability, T/C [18] 3.31% | viability, T/C [21] 1.24% | viability, T/C [22] 0.74% | viability, T/C [23] 0.68% | viability, T/C [24] 1.98% | viability, T/C [25] 1.91% | viability, T/C [26] 1.5% | viability, T/C [27] 0.93% | viability, T/C [28] 0.3% | viability, T/C [29] 0.36% | viability, T/C [30] 0.91%
787 nM: IC50 (second compound 1 µM)
32.2 nM: IC50 (second compound 3.16 µM)
inactive: viability, T/C [1] 84.8% | viability, T/C [2] 84.4% | viability, T/C [3] 89.6% | viability, T/C [4] 85.3% | viability, T/C [5] 20.8% | viability, T/C [7] 79% | viability, T/C [8] 110% | viability, T/C [9] 119% | viability, T/C [10] 69.9% | viability, T/C [11] 29.2% | viability, T/C [13] 81.6% | viability, T/C [14] 84.8% | viability, T/C [15] 97.9% | viability, T/C [16] 40% | viability, T/C [19] 50.6% | viability, T/C [20] 21.1%

CC(C)n1nc(-c2ccc3oc(N)nc3c2)c2c(N)ncnc21 + CNCc1ccccc1-c1csc(C(C)Nc2nc(C)nc3cc(OC)c(OC)cc23)c1
inactive: viability, T/C [31] 126% | viability, T/C [32] 113% | viability, T/C [33] 159% | viability, T/C [34] 185% | viability, T/C [1] 128% | viability, T/C [2] 154% | viability, T/C [35] 117% | viability, T/C [36] 150% | viability, T/C [37] 172% | viability, T/C [38] 136% | viability, T/C [7] 142% | viability, T/C [8] 109% | viability, T/C [39] 131% | viability, T/C [40] 135% | viability, T/C [41] 156% | viability, T/C [42] 132% | viability, T/C [13] 76.4% | viability, T/C [14] 84.2% | viability, T/C [43] 66.2% | viability, T/C [44] 105% | viability, T/C [45] 22.9%
active: viability, T/C [46] 1.2% | viability, T/C [19] 12.4% | viability, T/C [20] 2.02% | viability, T/C [47] 0.21% | viability, T/C [48] 0.64% | viability, T/C [49] 1.75% | viability, T/C [50] 0.23% | viability, T/C [25] 0.41% | viability, T/C [26] 0.41%
> 100 nM: IC50 (second compound 0.1 µM) | IC50 (second compound 0.316 µM) | IC50 (second compound 1 µM)
< 0.316 nM: IC50 (second compound 10 µM)
1.92 nM: IC50 (second compound 3.16 µM)

CC1(C)CCC(CN2CCN(c3ccc(C(=O)NS(=O)(=O)c4ccc(NCC5CCOCC5)c([N+](=O)[O-])c4)c(Oc4cnc5[nH]ccc5c4)c3)CC2)=C(c2ccc(Cl)cc2)C1 + CNCc1ccccc1-c1csc(C(C)Nc2nc(C)nc3cc(OC)c(OC)cc23)c1
1550 nM: IC50 (second compound 3.16 µM)
2190 nM: IC50 (second compound 0.316 µM)
active: viability, T/C [6] 4.56% | viability, T/C [12] 2.36% | viability, T/C [18] 2.22% | viability, T/C [23] 5.49% | viability, T/C [24] 0.23% | viability, T/C [25] 0.25% | viability, T/C [26] 0.32% | viability, T/C [27] 1.83% | viability, T/C [28] 0.35% | viability, T/C [29] 0.66% | viability, T/C [30] 0.23%
2050 nM: IC50 (second compound 1 µM)
2180 nM: IC50 (second compound 0.1 µM)
< 31.6 nM: IC50 (second compound 10 µM)
inactive: viability, T/C [1] 91.4% | viability, T/C [2] 106% | viability, T/C [3] 97.5% | viability, T/C [4] 92.9% | viability, T/C [5] 29.4% | viability, T/C [7] 94.7% | viability, T/C [8] 101% | viability, T/C [9] 95.2% | viability, T/C [10] 104% | viability, T/C [11] 27.4% | viability, T/C [13] 88.5% | viability, T/C [14] 96.7% | viability, T/C [15] 126% | viability, T/C [16] 132% | viability, T/C [17] 13.6% | viability, T/C [19] 45.1% | viability, T/C [20] 98.6% | viability, T/C [21] 64.8% | viability, T/C [22] 102%

COc1cc(Nc2ncc3c(n2)-c2ccc(Cl)cc2C(c2c(F)cccc2OC)=NC3)ccc1C(=O)O + CNCc1ccccc1-c1csc(C(C)Nc2nc(C)nc3cc(OC)c(OC)cc23)c1
active: viability, T/C [19] 0.27% | viability, T/C [20] 2.41% | viability, T/C [21] 15.8% | viability, T/C [22] 0.43% | viability, T/C [23] 0.37% | viability, T/C [24] 4.13% | viability, T/C [25] 0.16% | viability, T/C [26] 0.15% | viability, T/C [27] 0.17% | viability, T/C [28] 0.16% | viability, T/C [29] 0.17% | viability, T/C [30] 0.22%
> 10000 nM: IC50 (second compound 0.1 µM) | IC50 (second compound 0.316 µM) | IC50 (second compound 1 µM)
inactive: viability, T/C [1] 95.3% | viability, T/C [2] 178% | viability, T/C [3] 165% | viability, T/C [4] 150% | viability, T/C [5] 167% | viability, T/C [6] 155% | viability, T/C [7] 132% | viability, T/C [8] 145% | viability, T/C [9] 124% | viability, T/C [10] 140% | viability, T/C [11] 147% | viability, T/C [12] 134% | viability, T/C [13] 108% | viability, T/C [14] 123% | viability, T/C [15] 159% | viability, T/C [16] 156% | viability, T/C [17] 142% | viability, T/C [18] 120%
< 31.6 nM: IC50 (second compound 3.16 µM) | IC50 (second compound 10 µM)

COc1cc2nccc(Oc3ccc(NC(=O)C4(C(=O)Nc5ccc(F)cc5)CC4)cc3)c2cc1OC + CNCc1ccccc1-c1csc(C(C)Nc2nc(C)nc3cc(OC)c(OC)cc23)c1
inactive: viability, T/C [1] 86.2% | viability, T/C [2] 124% | viability, T/C [3] 94% | viability, T/C [4] 91.2% | viability, T/C [7] 74.8% | viability, T/C [8] 98.7% | viability, T/C [9] 94% | viability, T/C [10] 97.8% | viability, T/C [13] 97.9% | viability, T/C [14] 117% | viability, T/C [15] 104% | viability, T/C [16] 122% | viability, T/C [19] 113% | viability, T/C [20] 59.8% | viability, T/C [21] 53.4% | viability, T/C [22] 1.03%
1740 nM: IC50 (second compound 0.1 µM)
1730 nM: IC50 (second compound 0.316 µM)
1880 nM: IC50 (second compound 1 µM)
active: viability, T/C [5] 4.92% | viability, T/C [6] 6.89% | viability, T/C [11] 3.71% | viability, T/C [12] 4.44% | viability, T/C [17] 0.94% | viability, T/C [18] 0.47% | viability, T/C [23] 0.6% | viability, T/C [24] 0.24% | viability, T/C [25] 0.28% | viability, T/C [26] 0.32% | viability, T/C [27] 0.24% | viability, T/C [28] 0.18% | viability, T/C [29] 0.17% | viability, T/C [30] 0.29%
192 nM: IC50 (second compound 3.16 µM)
< 31.6 nM: IC50 (second compound 10 µM)

Cn1ncnc1[C@H]1c2n[nH]c(=O)c3cc(F)cc(c23)N[C@@H]1c1ccc(F)cc1 + CNCc1ccccc1-c1csc(C(C)Nc2nc(C)nc3cc(OC)c(OC)cc23)c1
< 0.316 nM: IC50 (second compound 10 µM)
> 100 nM: IC50 (second compound 0.1 µM) | IC50 (second compound 0.316 µM) | IC50 (second compound 1 µM)
active: viability, T/C [20] 3.27% | viability, T/C [47] 0.24% | viability, T/C [48] 0.26% | viability, T/C [49] 0.49% | viability, T/C [50] 0.28% | viability, T/C [25] 0.22% | viability, T/C [26] 0.19%
inactive: viability, T/C [31] 77% | viability, T/C [32] 84.2% | viability, T/C [33] 76.4% | viability, T/C [34] 64.5% | viability, T/C [1] 58.2% | viability, T/C [2] 58.3% | viability, T/C [35] 99.9% | viability, T/C [36] 75.2% | viability, T/C [37] 62.5% | viability, T/C [38] 57.9% | viability, T/C [7] 57.3% | viability, T/C [8] 62.2% | viability, T/C [39] 85.9% | viability, T/C [40] 97.9% | viability, T/C [41] 72% | viability, T/C [42] 73.5% | viability, T/C [13] 70% | viability, T/C [14] 86% | viability, T/C [43] 87.3% | viability, T/C [44] 78.7% | viability, T/C [45] 59.9% | viability, T/C [46] 89.3% | viability, T/C [19] 37.6%
22.4 nM: IC50 (second compound 3.16 µM)
